In the NIST ThermoML archive (doi:10.1016/j.jct.2013.09.017):

Key:
[1] = 101 kPa, Liquid; for viscosity: Capillary tube (Ostwald / Ubbelohde) method; for mass density: Vibrating tube method
[2] = xn = mol fraction of the nth substance listed; details: 101 kPa, Liquid; for viscosity: Capillary tube (Ostwald / Ubbelohde) method; for mass density: Vibrating tube method

CCCCCCCCCC [decane]
[1]
Details | mass density [kg/m3] | viscosity [mPa·s]
283.15 K | 737.54 | 1.082
293.15 K | 730.01 | 0.925
298.15 K | 726.22 | 0.858
303.15 K | 722.44 | 0.797

CCCCCCCCCC [decane] + CCCCCCCCN(CCCCCCCC)CCCCCCCC
[2], x2 = 0
Details | mass density [kg/m3] | viscosity [mPa·s]
283.15 K | 737.54 | 1.082
293.15 K | 730.01 | 0.925
303.15 K | 722.44 | 0.797

CCCCCCC [heptane]
[1]
Details | mass density [kg/m3] | viscosity [mPa·s]
283.15 K | 692.44 | 0.469
293.15 K | 684.05 | 0.42
298.15 K | 679.78 | 0.397
303.15 K | 675.54 | 0.377

CCCCCCC [heptane] + CCCCCCCCN(CCCCCCCC)CCCCCCCC
[2], x2 = 0
Details | mass density [kg/m3] | viscosity [mPa·s]
283.15 K | 692.44 | 0.469
293.15 K | 684.05 | 0.42
303.15 K | 675.54 | 0.377

CCCCCCCCC [nonane]
[1]
Details | mass density [kg/m3] | viscosity [mPa·s]
283.15 K | 725.58 | 0.826
293.15 K | 717.86 | 0.713
298.15 K | 713.95 | 0.667
303.15 K | 710.06 | 0.623

CCCCCCCCC [nonane] + CCCCCCCCN(CCCCCCCC)CCCCCCCC
[2], x2 = 0
Details | mass density [kg/m3] | viscosity [mPa·s]
283.15 K | 725.58 | 0.826
293.15 K | 717.86 | 0.713
303.15 K | 710.06 | 0.623

CCCCCCCC [octane]
[1]
Details | mass density [kg/m3] | viscosity [mPa·s]
283.15 K | 710.61 | 0.613
293.15 K | 702.6 | 0.541
298.15 K | 698.55 | 0.51
303.15 K | 694.5 | 0.481

CCCCCCCC [octane] + CCCCCCCCN(CCCCCCCC)CCCCCCCC
[2], x2 = 0
Details | mass density [kg/m3] | viscosity [mPa·s]
283.15 K | 710.61 | 0.613
293.15 K | 702.6 | 0.541
303.15 K | 694.5 | 0.481

CCCCCCCCN(CCCCCCCC)CCCCCCCC [trioctylamine]
[1]
Details | mass density [kg/m3] | viscosity [mPa·s]
283.15 K | 817.08 | 14.25
293.15 K | 810.48 | 9.957
298.15 K | 807.26 | 8.392
303.15 K | 803.88 | 7.114

CCCCCCCCN(CCCCCCCC)CCCCCCCC [trioctylamine] + CCCCCCCC
[2]
Details | mass density, 283.15 K [kg/m3] | mass density, 293.15 K [kg/m3] | mass density, 303.15 K [kg/m3] | viscosity, 283.15 K [mPa·s] | viscosity, 293.15 K [mPa·s] | viscosity, 303.15 K [mPa·s]
x1 = 0.1044 | 737.14 | 729.58 | 721.95 | 1.045 | 0.899 | 0.78
x1 = 0.2005 | 755.2 | 747.83 | 740.4 | 1.63 | 1.356 | 1.145
x1 = 0.2992 | 769.49 | 762.3 | 755.07 | 2.385 | 1.933 | 1.593
x1 = 0.4001 | 780.98 | 773.93 | 766.85 | 3.399 | 2.665 | 2.145
x1 = 0.4977 | 789.85 | 782.91 | 775.97 | 4.545 | 3.491 | 2.734
x1 = 0.6012 | 797.54 | 790.72 | 783.87 | 5.969 | 4.482 | 3.46
x1 = 0.7015 | 803.68 | 796.94 | 790.09 | 7.556 | 5.594 | 4.231
x1 = 0.7978 | 808.69 | 802 | 795.3 | 9.424 | 6.848 | 5.092
x1 = 0.897 | 813.09 | 806.45 | 799.81 | 11.61 | 8.242 | 6.01
x1 = 1 | 817.08 | 810.48 | 803.88 | 14.25 | 9.957 | 7.114

CCCCCCCCN(CCCCCCCC)CCCCCCCC [trioctylamine] + CCCCCCCCC
[2]
Details | mass density, 283.15 K [kg/m3] | mass density, 293.15 K [kg/m3] | mass density, 303.15 K [kg/m3] | viscosity, 283.15 K [mPa·s] | viscosity, 293.15 K [mPa·s] | viscosity, 303.15 K [mPa·s]
x1 = 0.1015 | 746.06 | 738.6 | 731.08 | 1.277 | 1.072 | 0.918
x1 = 0.2014 | 761.56 | 754.29 | 746.99 | 1.932 | 1.588 | 1.326
x1 = 0.3016 | 773.78 | 766.67 | 759.52 | 2.701 | 2.163 | 1.766
x1 = 0.3988 | 783.37 | 776.38 | 769.35 | 3.656 | 2.862 | 2.273
x1 = 0.4969 | 791.34 | 784.45 | 777.53 | 4.815 | 3.685 | 2.881
x1 = 0.5956 | 798.14 | 791.33 | 784.51 | 6.134 | 4.579 | 3.514
x1 = 0.6953 | 803.91 | 797.16 | 790.4 | 7.725 | 5.664 | 4.267
x1 = 0.7943 | 808.76 | 802.07 | 795.37 | 9.548 | 6.874 | 5.069
x1 = 0.9025 | 813.41 | 806.77 | 800.13 | 11.89 | 8.466 | 6.161
x1 = 1 | 817.08 | 810.48 | 803.88 | 14.25 | 9.957 | 7.114

CCCCCCCCN(CCCCCCCC)CCCCCCCC [trioctylamine] + CCCCCCCCCC
[2]
Details | mass density, 283.15 K [kg/m3] | mass density, 293.15 K [kg/m3] | mass density, 303.15 K [kg/m3] | viscosity, 283.15 K [mPa·s] | viscosity, 293.15 K [mPa·s] | viscosity, 303.15 K [mPa·s]
x1 = 0.1113 | 755.32 | 748.01 | 740.66 | 1.64 | 1.371 | 1.152
x1 = 0.1979 | 766.34 | 759.17 | 751.96 | 2.266 | 1.837 | 1.514
x1 = 0.297 | 776.77 | 769.72 | 762.64 | 3.092 | 2.448 | 1.976
x1 = 0.3974 | 785.51 | 778.56 | 771.59 | 4.092 | 3.172 | 2.515
x1 = 0.5044 | 793.3 | 786.44 | 779.56 | 5.402 | 4.086 | 3.174
x1 = 0.5913 | 798.73 | 791.93 | 785.11 | 6.558 | 4.896 | 3.743
x1 = 0.6888 | 804.03 | 797.29 | 790.53 | 8.006 | 5.85 | 4.389
x1 = 0.7962 | 809.11 | 802.43 | 795.73 | 9.857 | 7.086 | 5.238
x1 = 0.8991 | 813.37 | 806.73 | 800.09 | 11.97 | 8.401 | 6.09
x1 = 1 | 817.08 | 810.48 | 803.88 | 14.25 | 9.957 | 7.114
